In the supplement of paper PMC10307832:

What was measured:
Assay in all cases: relative viability (nuclei count vs DMSO), 5 days (fraction); higher = more cells survive
Ibrutinib + Pemetrexed = compound: C=CC(=O)N1CCC[C@@H](n2nc(-c3ccc(Oc4ccccc4)cc3)c3c(N)ncnc32)C1 [Ibrutinib] + Nc1nc2[nH]cc(CCc3ccc(C(=O)N[C@@H](CCC(=O)O)C(=O)O)cc3)c2c(=O)[nH]1 [Pemetrexed] (partner 0.2 µM)
In short: (§1)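 Values are medians from duplicate plates. Each reflects relative viability, defined as the nuclei count of treated wells over that of vehicle wells. Lung cancer cell lines in 1536-well plates were pin-tool dosed one day after seeding with one drug alone or with a fixed anchor-drug dose plus five library-drug doses (not always all listed) in √10 steps, then fixed, stained and imaged at 4× after 5 days.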

BMX-IN-1 + AZD7762 = compound: C=CC(=O)Nc1cc(-n2c(=O)ccc3cnc4ccc(-c5ccc(NS(C)(=O)=O)cc5)cc4c32)ccc1C [BMX-IN-1] + NC(=O)Nc1cc(-c2cccc(F)c2)sc1C(=O)N[C@H]1CCCNC1 [AZD7762] (partner 0.2 µM)
In short: as §1

BMX-IN-1 + OSI-027 = compound: C=CC(=O)Nc1cc(-n2c(=O)ccc3cnc4ccc(-c5ccc(NS(C)(=O)=O)cc5)cc4c32)ccc1C [BMX-IN-1] + COc1cccc2cc(-c3nc([C@H]4CC[C@H](C(=O)O)CC4)n4ncnc(N)c34)[nH]c12 [OSI-027] (partner 0.5 µM)
In short: as §1

BMX-IN-1 + Luminespib = compound: C=CC(=O)Nc1cc(-n2c(=O)ccc3cnc4ccc(-c5ccc(NS(C)(=O)=O)cc5)cc4c32)ccc1C [BMX-IN-1] + CCNC(=O)c1noc(-c2cc(C(C)C)c(O)cc2O)c1-c1ccc(CN2CCOCC2)cc1 [Luminespib] (partner 0.01 µM)
In short: as §1

Row | Cell Line | relative viability (Ibrutinib + Pemetrexed; first compound 0.005 µM) | relative viability (Ibrutinib + Pemetrexed; first compound 0.01581 µM) | relative viability (Ibrutinib + Pemetrexed; first compound 0.05 µM) | relative viability (Ibrutinib + Pemetrexed; first compound 0.1581 µM) | relative viability (Ibrutinib + Pemetrexed; first compound 0.5 µM) | relative viability (BMX-IN-1 + AZD7762; first compound 0.02 µM) | relative viability (BMX-IN-1 + AZD7762; first compound 0.2 µM) | relative viability (BMX-IN-1 + AZD7762; first compound 0.6325 µM) | relative viability (BMX-IN-1 + AZD7762; first compound 2 µM) | relative viability (BMX-IN-1 + OSI-027; first compound 0.02 µM) | relative viability (BMX-IN-1 + OSI-027; first compound 0.2 µM) | relative viability (BMX-IN-1 + OSI-027; first compound 0.6325 µM) | relative viability (BMX-IN-1 + OSI-027; first compound 2 µM) | relative viability (BMX-IN-1 + Luminespib; first compound 0.02 µM) | relative viability (BMX-IN-1 + Luminespib; first compound 0.2 µM) | relative viability (BMX-IN-1 + Luminespib; first compound 0.6325 µM) | relative viability (BMX-IN-1 + Luminespib; first compound 2 µM)
1 | HCC-827 | 0.22 | 0.248 | 0.24 | 0.246 | 0.168 | 0.217 | 0.207 | 0.251 | 0.194 | 0.785 | 0.968 | 0.828 | 0.778 | 0.589 | 0.805 | 0.716 | 0.713
2 | HOP-62 | 0.415 | 0.32 | 0.434 | 0.446 | 0.879 | 0.606 | 0.627 | 0.724 | 0.65 | 1.01 | 1.16 | 1.03 | 0.817 | 1.08 | 1.06 | 0.891 | 0.926
3 | LC-2-ad | 0.279 | 0.272 | 0.274 | 0.258 | 0.293 | 0.982 | 1.09 | 0.924 | 0.867 | 0.872 | 0.918 | 0.768 | 0.841 | 1.16 | 1.1 | 0.884 | 0.974
4 | LCLC-97TM1 | 0.234 | 0.208 | 0.22 | 0.232 | 0.249 | 0.235 | 0.239 | 0.327 | 0.202 | 0.585 | 0.66 | 0.542 | 0.628 | 0.969 | 0.856 | 0.817 | 0.823
5 | LCLC-103H | 0.43 | 0.467 | 0.467 | 0.464 | 0.544 | 0.824 | 0.887 | 0.773 | 0.82 | 0.493 | 0.55 | 0.527 | 0.522 | 1.1 | 0.933 | 0.956 | 0.882
6 | LK-2 | 0.194 | 0.328 | 0.263 | 0.225 | 0.26 | 0.397 | 0.297 | 0.323 | 0.41 | 0.219 | 0.188 | 0.187 | 0.242 | 0.197 | 0.219 | 0.176 | 0.207
7 | NCI-H520 | 0.67 | 0.769 | 0.666 | 0.718 | 0.724 |  |  |  |  | 0.253 | 0.238 | 0.279 | 0.282 | 0.243 | 0.231 | 0.243 | 0.218
8 | NCI-H661 | 0.868 | 0.927 | 0.89 | 0.902 | 0.8 |  |  |  |  | 0.638 | 0.798 | 0.772 | 0.761 | 1 | 0.916 | 1.03 | 0.863
9 | NCI-H727 |  |  |  |  |  | 0.574 | 0.585 | 0.635 | 0.541 | 0.846 | 0.597 | 0.648 | 0.612 | 0.33 | 0.366 | 0.343 | 0.243
10 | NCI-H1563 | 0.623 | 0.812 | 0.741 | 0.706 | 0.657 |  |  |  |  | 0.838 | 0.757 | 0.697 | 0.642 | 0.549 | 0.461 | 0.523 | 0.521
11 | NCI-H1623 |  |  |  |  |  |  |  |  |  | 0.42 | 0.456 | 0.528 | 0.409 | 0.431 | 0.52 | 0.804 | 0.484
12 | NCI-H1648 | 0.796 | 0.655 | 0.569 | 0.961 | 0.751 | 0.498 | 0.758 | 0.747 | 0.67 | 0.223 | 0.249 | 0.265 | 0.272 |  |  |  | 
13 | NCI-H1650 | 0.347 | 0.308 | 0.348 | 0.42 | 0.287 |  |  |  |  | 0.69 | 0.544 | 0.84 | 0.606 | 0.205 | 0.198 | 0.221 | 0.203
14 | NCI-H1703 |  |  |  |  |  | 0.132 |  |  | 0.143 |  |  |  |  |  |  |  | 
15 | NCI-H2009 | 1.08 | 1.06 | 1.16 | 1.11 | 1.22 |  |  |  |  | 0.689 | 0.651 | 0.639 | 0.386 | 1.11 | 1.09 | 1.06 | 1.08
16 | NCI-H2023 | 0.208 | 0.219 | 0.293 | 0.248 | 0.396 |  |  |  |  | 0.448 | 0.434 | 0.418 | 0.244 | 1.06 | 1.03 | 0.774 | 0.739
17 | NCI-H2228 | 0.33 | 0.345 | 0.328 | 0.397 | 0.445 |  |  |  |  | 0.595 | 0.673 | 0.789 | 0.529 | 0.176 | 0.138 | 0.108 | 0.13
18 | SK-LU-1 |  | 0.975 | 1.08 | 1 | 1.09 |  |  |  |  | 0.345 | 0.316 | 0.42 | 0.298 | 0.172 | 0.194 | 0.189 | 0.196
19 | SW 1573 |  | 0.917 | 0.968 | 0.88 | 1.25 |  |  |  |  | 0.882 | 0.778 | 0.736 | 0.0649 | 0.28 | 0.221 | 0.225 | 0.205
20 | UMC-11 | 0.87 | 0.732 | 0.832 | 0.824 | 0.821 |  |  |  |  | 0.571 | 0.578 | 0.491 | 0.488 | 1.17 | 1.24 | 1.19 | 1.03
